Article PMC5953424 (Nature chemical biology, 2014)

Experiments:
PME1 = biological target: T1, PME1 (Homo sapiens, UniProt Q9Y570); assay: EnPlex assay; assay type: biochemical; conditions: FP-biotin 1 μM, <5 = >50% inhibition at lowest dose 5 nM
T1 sequence (Q9Y570 1-386): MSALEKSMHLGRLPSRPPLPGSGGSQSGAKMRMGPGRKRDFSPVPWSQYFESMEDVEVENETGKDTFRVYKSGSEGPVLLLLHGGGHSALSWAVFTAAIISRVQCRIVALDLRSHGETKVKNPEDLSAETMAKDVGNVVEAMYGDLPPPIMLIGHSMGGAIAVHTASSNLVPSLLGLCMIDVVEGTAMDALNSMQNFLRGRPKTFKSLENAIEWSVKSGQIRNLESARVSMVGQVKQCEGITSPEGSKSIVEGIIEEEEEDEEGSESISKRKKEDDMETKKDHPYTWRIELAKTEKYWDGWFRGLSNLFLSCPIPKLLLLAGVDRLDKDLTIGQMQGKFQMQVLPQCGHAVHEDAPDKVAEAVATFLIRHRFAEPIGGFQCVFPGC

Adverse effects in mice = assay type: in vivo
[1] = Oral glucose tolerance test; assay type: in vivo, C57BL/6 mice; conditions: mice, oral gavage 1 h before dextrose 5 g/kg; listed as ARI-2243

| SMILES | IC50 (PME1) | Adverse effects in mice (Adverse effects in mice) | Anti-hyperglycemic activity in oral glucose tolerance test [1] |
| --- | --- | --- | --- |
| COC(=O)N1C(=O)[C@](c2ccccc2)(C2CCCC2)N1C(=O)OC [ABL127] | 0.012 µM |  |  |
| CC(N)C(=S)N1CCCC1B(O)O (stereo not drawn) [Compound 24, Ala-boroPro thioxoamide] |  | no significant adverse effects | highly effective and essentially equal anti-hyperglycemic glycemic activity |
